According to US4804676A, “Enkephalinase B inhibitors, their preparation, and pharmaceutical compositions containing the same” (Sankyo Company Limited, priority 1984, dated 1989):
Where two headings read alike, the source gives them in different places.

Tests used:
enkephalinase B [1] = biological target: T1, enkephalinase B (Rattus norvegicus, UniProt O55096); assay: Enzymatic properties of purified enkephalinase B (Michaelis constant); type: biochemical; details: purified rat brain enkephalinase B
T1 construct: from tissue; host or cells: rat brain membrane, Triton X-100 solubilized, purified by DEAE chromatography, chromatofocusing and gel filtration
T1 sequence (O55096 2-738 limits assumed): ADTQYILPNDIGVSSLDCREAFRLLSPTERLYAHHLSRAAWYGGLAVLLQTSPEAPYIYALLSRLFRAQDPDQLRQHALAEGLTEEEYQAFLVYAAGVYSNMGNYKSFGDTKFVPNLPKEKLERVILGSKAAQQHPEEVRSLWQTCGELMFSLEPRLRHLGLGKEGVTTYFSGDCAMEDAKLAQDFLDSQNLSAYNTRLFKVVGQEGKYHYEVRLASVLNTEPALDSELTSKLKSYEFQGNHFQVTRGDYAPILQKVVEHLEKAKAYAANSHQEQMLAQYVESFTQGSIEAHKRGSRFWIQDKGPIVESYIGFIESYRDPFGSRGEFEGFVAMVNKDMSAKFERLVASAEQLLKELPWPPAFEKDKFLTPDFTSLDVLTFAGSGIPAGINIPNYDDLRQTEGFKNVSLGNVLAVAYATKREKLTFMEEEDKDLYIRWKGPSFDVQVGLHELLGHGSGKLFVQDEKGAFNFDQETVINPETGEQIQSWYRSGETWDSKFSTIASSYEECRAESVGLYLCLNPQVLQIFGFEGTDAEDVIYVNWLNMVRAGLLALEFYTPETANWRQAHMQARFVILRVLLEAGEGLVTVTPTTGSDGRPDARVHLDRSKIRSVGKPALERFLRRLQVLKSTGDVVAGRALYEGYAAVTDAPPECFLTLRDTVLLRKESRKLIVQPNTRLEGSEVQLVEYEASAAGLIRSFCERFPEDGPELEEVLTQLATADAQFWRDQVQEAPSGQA
Description: (§1) 100 g of rat brain was homogenized using 1 liter of 50 mM tris-HCl buffer (pH 7.7) and the homogenate was centrifuged at 50,000 G for 15 minutes to give a precipitate. The precipitate was washed three times and centrifuged as before. It was then suspended in 500 ml of the same buffer containing 1% of Triton X-100, and kept at 37° C. for 1 hour. The suspension was centrifuged at 100,000 G for 1 hour to give a crude enzyme solution of enkephalinase B as supernatant.
(§2) The thus obtained crude enzyme solution was dialyzed against a 5 mM sodium phosphate buffer (pH 7.0) and was applied for adsorption to a column (3.0×30 cm) of DEAE-Sephacel (produced by Pharmacia Co. Ltd.) previously equilibrated with the same buffer containing 1% Triton X-100 (solution A). The column was washed with solution A and eluted with 2.5 liters of solution A and with 2.5 liters of solution A which contains 0.4M sodium chloride by the linear concentration gradient method.
(§3) The obtained fraction of enkephalinase B was dialyzed against solution A, and was applied for adsorption to a column (1.6×27 cm) of DEAE-Toyopearl 670S (produced by Toyo Soda Kogyo K.K.) previously equilibrated with solution A. Elution was carried out using 500 ml of solution A and 500 ml of a solution of 0.4M sodium chloride dissolved in solution A by the linear concentration gradient method. […]

enkephalinase B [2] = biological target: T1, enkephalinase B; assay: Enkephalinase B inhibition IC50, method of Parker and Waud, substrate 0.1 mM methionine-enkephalin; type: biochemical
Description: as §1
as §2, with “method. […]” for “method.”
A mixture of 40 μl of 0.1M sodium phosphate buffer (pH 6.5), 10 μl of a Propioxatin A solution and 40 μl of an enkephalinase B solution was incubated at 37° C. for 5 minutes, then 10 μl of a 1 mM or 10 mM methionine-enkephalin solution were added, followed by stirring at 37° C. for 20 minutes. The reaction was then stopped by adding 10 μl of 2N hydrochloric acid to the reaction mixture, and the amount of tyrosyl-glycine (Tyr-Gly) produced (Vi) with respect to 20 μl of the reaction mixture was determined by high pressure liquid chromatography. Similarly, the amount of tyrosyl-glycine produced (V) in a blank test, in which no Propioxatin was contained and only a buffer was used, was measured. […]
By way of comparison, the enkephalinase B inhibition activity was also measured for the compound N-[3-(N-hydroxycarbamoyl)-2-benzylpropanoyl]alanine, which is a compound within formula (I) of the above-mentioned French patent specification No. 2 518 088 (Japanese laid-open application No. 58-150547). […]

enkephalinase B [3] = biological target: T1, enkephalinase B; assay: Inhibition of enkephalinase B, Ki by the method of Dixon (Tyr-Gly released from methionine-enkephalin, HPLC); type: biochemical; details: for Ki: enkephalinase B, pH 6.5, 37° C., methionine-enkephalin substrate, method of Dixon, read-out: Ki value (inhibition constant)
Description: The presence of the desired substances, Propioxatins A and B, can be assessed quantitavely during the processes of cultivation and purification by measuring the enkephalinase B inhibition activity. To do this, methionine-enkephalin is incubated with an enkephalinase B solution containing the Propioxatin, and then the amount of the resulting product tyrosyl-glycine (Tyr-Gly) is estimated by chromatography (e.g. thin layer chromatography or high pressure liquid chromatography). A blank test without Propioxatin is also carried out, and the enkephalinase B inhibition constant is determined. The enkephalinase B solution used for this technique can be prepared from rat brain by generally-known enzyme purification methods. Since enkephalinase B exists in rat brain as a membrane-bound enzyme, it is released from the membrane and made soluble using a detergent such as Triton X-100. The solubilized enzyme is then subjected to a combination of purification processes such as ion-exchange chromatography in which various kinds of ion-exchangers having a diethylaminoethyl (DEAE) group can be used, gel filtration using a molecular sieve, or isoelectric fractionation to obtain the purified enkephalinase B. These methods are described in greater detail hereinafter in the Examples.
as §1, §2, §3

Solubility = type: physicochemical
rat = assay: Analgesic action by the Randall-Selitto method after administration into the cerebral ventricle; type: in vivo
Description: Propioxatin A (10 μg) and enkephalin (1 mg) were administered simultaneously into the cereberal ventricle of a rat and the analgesic action thereof was examined by the Randall-Selitto method (Randall, L. D. and Selitto, J. J.; Arch. Int. Pharmacodyn. 111, 409-419 (1957)). The same quantities of Propioxatinn A and enkephalin were also administered separately, as controls.

[4] = enkephalin 1 mg, Propioxatin A 10 μg

type of inhibition of enkephalinase B (enkephalinase B [3]) | Ki (enkephalinase B [3]) [µM] | Solubility in ethanol and acetone (Solubility) | Solubility in ethyl acetate, chloroform, benzene and ether (Solubility) | Solubility in water, methanol and dimethyl sulfoxide (Solubility) | SMILES | other results
– | – | – | – | – | CSCC[C@H](NC(=O)[C@H](Cc1ccccc1)NC(=O)CNC(=O)CNC(=O)[C@@H](N)Cc1ccc(O)cc1)C(=O)O [Methionine-enkephaline, Tyr-Gly-Gly-Phe-Met] | Km value relative to Methionine-enkephaline (Michaelis constant) (enkephalinase B [1]): 53 µM
– | – | – | – | – | C[C@H](NC(=O)C(CC(=O)NO)Cc1ccccc1)C(=O)O (stereo partly drawn) [Compound of FR 2 518 088, N-[3-(N-hydroxycarbamoyl)-2-benzylpropanoyl]alanine, reference compound] | IC50 (enkephalinase B [2]): 44.2 µM
competitive inhibitor | 0.11 | slightly soluble | insoluble | Soluble | CC(C)C[C@H](CC(=O)NO)C(=O)N1CCC[C@H]1C(=O)N[C@H](C(=O)O)C(C)C [Propioxatin B] | –
– | – | – | – | – | CC(C)C[C@H](NC(=O)[C@H](Cc1ccccc1)NC(=O)CNC(=O)CNC(=O)[C@@H](N)Cc1ccc(O)cc1)C(=O)O [enkephalin] | time for analgesic effect to fall to 50% of its peak value (rat; [4]): about 30 minutes; time of peak value of analgesic effect after injection (rat; [4]): approximately 10 minutes
competitive inhibitor | 0.013 | slightly soluble | insoluble | Soluble | CCC[C@H](CC(=O)NO)C(=O)N1CCC[C@H]1C(=O)N[C@H](C(=O)O)C(C)C [Propioxatin A] | IC50 (enkephalinase B [2]; enkephalinase B, substrate 0.1 mM methionine-enkephalin, read-out: IC50 (converted)): 0.0299 µM; more active than the prior art compound (enkephalinase B [2]; ratio to the compound of FR 2 518 088, enkephalinase B IC50): approximately 1,000; analgesic effect (rat; Propioxatin A 10 μg injected alone): No appreciable analgesic effect; prolonging the analgesic action of enkephalin (rat; Propioxatin A 10 μg with enkephalin 1 mg): significantly effective
